Patent publication US6649614B2, “Use of a NK-1 receptor antagonist and an antidepressant and/or an anti-anxiety agent for treatment of depression or anxiety” (Merck Sharp & Dohme Ltd., priority 1996, dated 2003)

Assays:
gerbils = assay: Gerbil foot-tapping (CNS penetration) assay; assay type: in vivo, Mongolian gerbil (Meriones unguiculatus); conditions: for gerbil foot-tapping (5 mins.) ID50 / gerbil foot-tapping (24 hrs.) ID50: i.v.; for gerbil foot-tapping (5 mins.) ID50: 5 mins. before central NK-1 agonist challenge; for gerbil foot-tapping (24 hrs.) ID50: 24 hrs. before central NK-1 agonist challenge
Source text: ASSAY 3: Gerbil Foot-tapping (CNS Penetration) Assay
CNS-penetrant NK-1 receptor antagonists for use in the present invention can be identified by their ability to inhibit foot tapping in gerbils induced by anxiogenic agents (such as pentagastrin) or central infusion of NK-1 receptor agonists such as GR73632, or caused by aversive stimulation such as foot shock or single housing, based on the method of Rupniak & Williams, Eur. J. Pharmacol., 1994, 265, 179.
Male or female Mongolian gerbils (35-70 g) are anaesthetised by inhalation of an isoflurane/oxygen mixture to permit exposure of the jugular vein in order to permit administration of test compounds or vehicle in an injection volume of approximately 5 ml/kg i.v. Alternatively, test compounds may be administered orally or by subcutaneous or intraperitoneal routes. A skin incision is then made in the midline of the scalp to expose the skull.

guinea-pig pups = assay: Separation-induced vocalisation in guinea-pig pups; assay type: in vivo; conditions: for attenuation of separation-induced vocalisations compared with baseline: 30 minutes before isolation
Source text: ASSAY 2: Separation-induced Vocalisation
Male and female guinea-pigs pups are housed in family groups with their mothers and littermates throughout the study. Experiments are commenced after weaning when the pups are at least 2 weeks old. Before entering an experiment, the pups may be screened to ensure that a vigorous vocalisation response is reproducibly elicited following maternal separation. The pups are placed individually in an observation cage (approximately 55 cm×39 cm×19 cm) in a room physically isolated from the home cage for approximately 15 minutes and the duration and/or number of vocalisation during this baseline period is recorded. […] The duration and/or number of vocalisation on drug treatment days may be expressed as a percentage of the pre-treatment baseline value for each animal or compared with values obtained in vehicle-treated animals. The same subjects may be retested once weekly for up to 6 weeks.

ferrets = assay: Ferret emesis (cisplatin-induced); assay type: in vivo; conditions: p.o., 60 minutes before cisplatin 10 mg/kg i.v.
Source text: ASSAY 4: Ferret Emesis […]

## C[C@@H](O[C@H]1OCCN(Cc2n[nH]c(=O)[nH]2)[C@H]1c1ccc(F)cc1)c1cc(C(F)(F)F)cc(C(F)(F)F)c1 [2-(R)-(1-(R)-(3,5-bis(trifluoromethyl)phenyl)ethoxy)-3-(S)-(4-fluorophenyl)-4-(3-(5-oxo-1H,4H-1,2,4-triazolo)methyl)morpholine]
gerbils
  gerbil foot-tapping (5 mins.) ID50: ID50 = 0.36 mg/kg i.v.
  gerbil foot-tapping (24 hrs.) ID50: ID50 = 0.33 mg/kg i.v.
guinea-pig pups; p.o., 4 hrs. pretreatment
  guinea-pig vocalisation ID50: ID50 = 0.73 mg/kg p.o.
ferrets
  ID90 in the ferret emesis assay: < 3 mg/kg p.o.

## C[C@@H](O[C@H]1OCCN(Cc2nn[nH]c2CN(C)C)[C@H]1c1ccccc1)c1cc(C(F)(F)F)cc(C(F)(F)F)c1 [Test Compound A, 2-(R)-(1-(R)-(3,5-bis(trifluoromethyl)phenyl)ethoxy)-4-(5-(dimethylamino)methyl-1,2,3-triazol-4-yl)methyl-3-(S)-phenylmorpholine]
gerbils
  gerbil foot-tapping (5 mins.) ID50: ID50 = 0.12 mg/kg i.v.
  gerbil foot-tapping (24 hrs.) ID50: ID50 = 0.17 mg/kg i.v.
guinea-pig pups; 0.25 mg/kg s.c. alone
  attenuation of separation-induced vocalisations compared with baseline: approximately 25%
guinea-pig pups; s.c.
  guinea-pig vocalisation ID50: ID50 = 0.5 mg/kg s.c.

## C[C@@H](O[C@@H]1OCCN(Cc2nn[nH]c2CN(C)C)[C@@H]1c1ccccc1)c1cc(C(F)(F)F)cc(C(F)(F)F)c1 [Test Compound B, 2-(S)-(1-(R)-(3,5-bis(trifluoromethyl)phenyl)ethoxy)-4-(5-(dimethylamino)methyl-1,2,3-triazol-4-yl)methyl-3-(R)-phenylmorpholine]
guinea-pig pups; 0.25 mg/kg s.c. alone
  attenuation of separation-induced vocalisations when administered alone: failure
guinea-pig pups; 0.25 mg/kg s.c. with buspirone 0.25 mg/kg s.c.
  potentiation of the inhibitory effect of buspirone on separation-induced vocalisations: failure
guinea-pig pups; 0.25 mg/kg s.c. with fluoxetine 2 mg/kg i.p.
  potentiation of the inhibitory effect of fluoxetine on separation-induced vocalisations: failure

## O=C1CC2(CCCC2)CC(=O)N1CCCCN1CCN(c2ncccn2)CC1 [buspirone, reference compound]
guinea-pig pups; 0.25 mg/kg s.c. alone
  attenuation of separation-induced vocalisations compared with baseline: approximately 25%
guinea-pig pups; s.c.
  guinea-pig vocalisation ID50: 0.5 mg/kg s.c.

## CN1C(=O)CN=C(c2ccccc2)c2cc(Cl)ccc21 [diazepam, reference compound]
guinea-pig pups; s.c.
  guinea-pig vocalisation ID50: 0.7 mg/kg s.c.

## CNCCC(Oc1ccc(C(F)(F)F)cc1)c1ccccc1 (stereo not drawn) [fluoxetine, reference compound]
guinea-pig pups; 2 mg/kg i.p. alone
  attenuation of separation-induced vocalisations compared with baseline: approximately 25%
guinea-pig pups; i.p.
  guinea-pig vocalisation ID50: 2.7 mg/kg i.p.

## CN(C)CCCN1c2ccccc2CCc2ccccc21 [imipramine, reference compound]
gerbils; s.c., foot-tapping induced by substance P
  foot-tapping ID50: 3.8 mg/kg s.c.
guinea-pig pups; s.c.
  guinea-pig vocalisation ID50: 5.4 mg/kg s.c.
